The structures appear in SMILES notation.

This experiment concerns the target T1, human recombinant PDE5 (Homo sapiens, UniProt O76074).
T1 construct: host or cells: Saccharomyces cerevisiae strain BJ2-54 (ATCC 74465)
Kind of experiment: cGMP-PDE inhibition, one-step assay with human recombinant PDE5. The experiment is classed as biochemical. The conditions noted are these: 0.15 μM 8-[H3]-cGMP, 30 min. How it is done:
The compounds of structural formula (I) were tested for an ability to inhibit PDE5. The ability of a compound to inhibit PDE5 activity is related to the IC50 value for the compound, i.e., the concentration of inhibitor required for 50% inhibition of enzyme activity. The IC50 value for compounds pounds of structural formula (I) were determined using recombinant human PDE5.
Recombinant production of human PDE1B, PDE2, PDE4A, PDE4B, PDE4C, PDE4D, PDE5, and PDE7 was carried out similarly to that described in Example 7 of U.S. Pat. No. 5,702,936, incorporated herein by reference, except that the yeast transformation vector employed, which is derived from the basic ADH2 plasmid described in Price et al., Methods in Enzymology, 185, pp. 308–318 (1990), incorporated yeast ADH2 promoter and terminator sequences and the Saccharomyces cerevisiae host was the protease-deficient strain BJ2-54 deposited on Aug. 31, 1998 with the American Type Culture Collection, Manassas, Va., under accession number ATCC 74465. Transformed host cells were grown in 2×SC-leu medium, pH 6.2, with trace metals, and vitamins. After 24 hours, YEP medium-containing glycerol was added to a final concentration of 2×YET/3% glycerol. Approxiately 24 hr later, cells were harvested, washed, and stored at −70° C. […]
Cell pellets (29 g) were thawed on ice with an equal volume of Lysis Buffer (25 mM Tris HCl, pH 8, 5 mM MgCl2, 0.25 mM DTT, 1 mM benzamidine, and 10 μM ZnSO4). Cells were lysed in a Microfluidizer® (Microfluidics Corp.) using nitrogen at 20,000 psi. The lysate was centrifuged and filtered through 0.45 μm disposable filters. The filtrate was applied to a 150 mL column of Q SEPHAROSE® Fast-Flow (Pharmacia). The column was washed with 1.5 volumes of Buffer A (20 mM Bis-Tris Propane, pH 6.8, 1 mM MgCl2, 0.25 mM DTT, 10 μM ZnSO4) and eluted with a step gradient of 125 mM NaCl in Buffer A followed by a linear gradient of 125–1000 mM NaCl in Buffer A. Active fractions from the linear gradient were applied to a 180 mL hydroxyapatite column in Buffer B (20 mM Bis-Tris Propane (pH 6.8), 1 mM MgCl2, 0.25 mM DTT, 10 μM ZnSO4, and 250 mM KCl). After loading, the column was washed with 2 volumes of Buffer B and eluted with a linear gradient of 0–125 mM potassium phosphate in Buffer B. Active fractions were pooled, precipitated with 60% ammonium sulfate, and resuspended in Buffer C (20 mM Bis-Tris Propane, pH 6.8, 125 mM NaCl, 0.5 mM DTT, and 10 μM ZnSO4). The pool was applied to a 140 mL column of SEPHACRYL® S-300 HR and eluted with Buffer C. Active fractions were diluted to 50% glycerol and stored at −20° C.
cGMP-PDE activity of compounds of the present invention was measured using a one-step assay adapted from Wells et al., Biochim. Biophys. Acta, 384, 430 (1975). The reaction medium contained 50 mM Tris-HCl, pH 7.5, 5 mM magnesium acetate. 250 μg/ml 5′-Nucleotidase, 1 mM EGTA, and 0.15 μM 8-[H^3]-cGMP. Unless otherwise indicated, the enzyme used was a human recombinant PDE5 (ICOS Corp., Bothell, Wash.).
Compounds of the invention were dissolved in DMSO finally present at 2% in the assay.
As for `CNc1ccc(C(=O)N2CCc3c([nH]c4ccccc34)C2c2ccc3c(c2)OCO3)cc1` (stereo not drawn) [Example 5, 1-(1-Benzo[1,3]dioxol-5-yl-1,3,4,9-tetrahydro-β-carbolin-2-yl)-1-(4-methylaminophenyl)methanone], the IC50 came to 200 nM.
Then `CN(C)c1ccc(C(=O)N2CCc3c([nH]c4ccccc34)C2c2ccc3c(c2)OCO3)cc1` (stereo not drawn) [Example 6, 1-(1-Benzo[1,3]dioxol-5-yl-1,3,4,9-tetrahydro-β-carbolin-2-yl)-1-(4-dimethylaminophenyl)methanone], with 670 nM.
For `NC(=O)c1ccc(C(=O)N2CCc3c([nH]c4ccccc34)C2c2ccc3c(c2)OCO3)cc1` (stereo not drawn) [Example 7, 4-[1-(1-Benzo[1,3]dioxol-5-yl-1,3,4,9-tetrahydro-β-carbolin-2-yl)methanoyl]benzamide], the IC50 worked out at 550 nM.
For `O=C(C#Cc1ccccc1)N1CCc2c([nH]c3ccccc23)C1c1ccc2c(c1)OCO2` (stereo not drawn) [Example 8, 1-(1-Benzo[1,3]dioxol-5-yl-1,3,4,9-tetrahydro-β-carbolin-2-yl)-3-phenylpropynone] the value was 190 nM; for `Nc1ccccc1CCC(=O)N1CCc2c([nH]c3ccccc23)C1c1ccc2c(c1)OCO2` (stereo not drawn) [Example 9, 3-(2-Aminophenyl)-1-(1-benzo[1,3]dioxol-5-yl-1,3,4,9-tetrahydro-β-carbolin-2-yl)propan-1-one], 440 nM.
`O=C(Cc1ccccc1)Nc1ccc(C(=O)N2CCc3c([nH]c4ccccc34)C2c2ccc3c(c2)OCO3)cc1` (stereo not drawn) [Example 10, N-{4-[1-(1-Benzo[1,3]dioxol-5-yl-1,3,4,9-tetrahydro-β-carbolin-2-yl)methanoyl]phenyl}-2-phenylacetamide]: the IC50 was determined as 760 nM.
As for `O=C(CCc1ccccc1)N1CCc2c([nH]c3ccccc23)C1c1ccc2c(c1)OCO2` (stereo not drawn) [Example 11, 1-(1-Benzo[1,3]dioxol-5-yl-1,3,4,9-tetrahydro-β-carbolin-2-yl)-3-phenylpropan-1-one], the IC50 amounted to 440 nM.
For `O=C(/C=C/c1cccc(CCC(=O)N2CCc3c([nH]c4ccccc34)C2c2ccc3c(c2)OCO3)c1)N1CCc2c([nH]c3ccccc23)C1c1ccc2c(c1)OCO2` (stereo not shown) [Example 13a] the value was 480 nM; for `O=C(/C=C/c1ccc(CCC(=O)N2CCc3c([nH]c4ccccc34)C2c2ccc3c(c2)OCO3)cc1)N1CCc2c([nH]c3ccccc23)C1c1ccc2c(c1)OCO2` (stereo not shown) [Example 13b], 20 nM.
As for `O=C(c1ccc(-c2cccnc2)s1)N1CCc2c([nH]c3ccccc23)C1c1ccc2c(c1)OCO2` (stereo not shown) [Example 18], the IC50 came to 110 nM.
Turning to `O=C(c1ccc(-c2ccccc2)s1)N1CCc2c([nH]c3ccccc23)C1c1ccc2c(c1)OCO2` (stereo not shown) [Example 19], the IC50 turned out to be 250 nM.
For `COc1ccc(C2c3[nH]c4ccccc4c3CCN2C(=O)c2cc3ccccc3s2)cc1Cl` (stereo not shown) [Example 20] the value was 420 nM.
For `O=C(c1cc2cc([N+](=O)[O-])ccc2s1)N1CCc2c([nH]c3ccccc23)C1c1ccc2c(c1)OCO2` (stereo not shown) [Example 21] the value was 130 nM.
For `Nc1ccc2sc(C(=O)N3CCc4c([nH]c5ccccc45)C3c3ccc4c(c3)OCO4)cc2c1` (stereo not shown) [Example 22], the IC50 came to 80 nM.
Consider `O=C(Cc1csc2ccccc12)N1CCc2c([nH]c3ccccc23)C1c1ccc2c(c1)OCO2` (stereo not drawn) [Example 23, 2-Benzo[b]thiophen-3-yl-1-(1-benzo[1,3]dioxol-5-yl-1,3,4,9-tetrahydro-β-carbolin-2-yl)ethanone], for which the half-maximal inhibitory concentration (IC50) turned out to be 360 nM.
For `CC(=O)Nc1ccc2sc(C(=O)N3CCc4c([nH]c5ccccc45)C3c3ccc4c(c3)OCO4)cc2c1` (stereo not shown) [Example 24] the value was 30 nM; for `O=C(CCl)Nc1ccc2sc(C(=O)N3CCc4c([nH]c5ccccc45)C3c3ccc4c(c3)OCO4)cc2c1` (stereo not shown) [Example 25], 40 nM; for `O=C(c1ccsc1)N1CCc2c([nH]c3ccccc23)C1c1ccc2c(c1)OCO2` (stereo not shown) [Example 26], 900 nM.
For the compound `O=C(CN1CCOCC1)Nc1ccc2sc(C(=O)N3CCc4c([nH]c5ccccc45)C3c3ccc4c(c3)OCO4)cc2c1` (stereo not shown) [Example 27], the IC50 came out at 40 nM.
`CN1CCN(CC(=O)Nc2ccc3sc(C(=O)N4CCc5c([nH]c6ccccc56)C4c4ccc5c(c4)OCO5)cc3c2)CC1` (stereo not shown) [Example 28]: the IC50 was 120 nM.
`O=C(CN1CCCCC1)Nc1ccc2sc(C(=O)N3CCc4c([nH]c5ccccc45)C3c3ccc4c(c3)OCO4)cc2c1` (stereo not shown) [Example 29]: the IC50 amounted to 300 nM.
Turning to `COC(=O)CC(=O)Nc1ccc2sc(C(=O)N3CCc4c([nH]c5ccccc45)C3c3ccc4c(c3)OCO4)cc2c1` (stereo not shown) [Example 30], the IC50 was 60 nM.
For `O=C(Cn1ccnc1)Nc1ccc2sc(C(=O)N3CCc4c([nH]c5ccccc45)C3c3ccc4c(c3)OCO4)cc2c1` (stereo not shown) [Example 31] the value was 40 nM.
On to `O=C(c1cc2cccc(Br)c2s1)N1CCc2c([nH]c3ccccc23)C1c1ccc2c(c1)OCO2` (stereo not shown) [Example 32], for which the IC50 was 480 nM.
On to `O=C(c1cc2c([N+](=O)[O-])cccc2s1)N1CCc2c([nH]c3ccccc23)C1c1ccc2c(c1)OCO2` (stereo not shown) [Example 33], for which the IC50 was found to be 200 nM.
As to `O=C(c1ccc([N+](=O)[O-])s1)N1CCc2c([nH]c3ccccc23)C1c1ccc2c(c1)OCO2` (stereo not shown) [Example 34], the IC50 came to 460 nM.
For `O=C(c1cc2c(Br)cccc2s1)N1CCc2c([nH]c3ccccc23)C1c1ccc2c(c1)OCO2` (stereo not shown) [Example 35] the value was 410 nM.
For `CC(=O)c1ccc(C(=O)N2CCc3c([nH]c4ccccc34)C2c2ccc3c(c2)OCO3)s1` (stereo not shown) [Example 36] the value was 110 nM; for `COc1ccc2cc(C(=O)N3CCc4c([nH]c5ccccc45)C3c3ccc4c(c3)OCO4)sc2c1` (stereo not shown) [Example 37], 40 nM; for `COc1ccc2sc(C(=O)N3CCc4c([nH]c5ccccc45)C3c3ccc4c(c3)OCO4)cc2c1` (stereo not shown) [Example 38], 30 nM.
Then `O=C(c1ccc(CN2CCOCC2)s1)N1CCc2c([nH]c3ccccc23)C1c1ccc2c(c1)OCO2` (stereo not shown) [Example 39], with 400 nM; and `COCc1ccc(C(=O)N2CCc3c([nH]c4ccccc34)C2c2ccc3c(c2)OCO3)s1` (stereo not shown) [Example 40], with 320 nM.
As to `CN(C)CC(=O)Nc1ccc(C(=O)N2CCc3c([nH]c4ccccc34)C2c2ccc3c(c2)OCO3)o1` (stereo not shown) [Example 41], the IC50 is 240 nM.
Consider `CN(C)Cc1ccc(C(=O)N2CCc3c([nH]c4ccccc34)C2c2ccc3c(c2)OCO3)s1` (stereo not shown) [Example 42], for which the IC50 worked out at 850 nM.
Then `CN(C)Cc1ccc2sc(C(=O)N3CCc4c([nH]c5ccccc45)C3c3ccc4c(c3)OCO4)cc2c1` (stereo not shown) [Example 43], with 290 nM; and `Nc1ccc(C(=O)N2CCc3c([nH]c4ccccc34)C2c2ccc3c(c2)OCO3)s1` (stereo not shown) [Example 44], with 490 nM; and `COc1cc2nc(N3CCc4c([nH]c5ccccc45)C3c3ccc4c(c3)OCO4)[nH]c(=O)c2cc1OC` (stereo not drawn) [Example 46, 2-(1-Benzo[1,3]dioxol-5-yl-1,3,4,9-tetrahydro-β-carbolin-2-yl) -6,7-dimethoxy-3H-quinazolin-4-one], with 5 nM.
Consider `COc1cc2nc(N3CCc4c([nH]c5ccccc45)C3c3ccc4c(c3)OCO4)nc(Cl)c2cc1OC` (stereo not drawn) [Example 47a, 1-Benzo[1,3]dioxol-5-yl-2-(4-chloro-6,7-dimethoxyquinazolin-2-yl)-2,3,4,9-tetrahydro-1H-β-carboline], for which the IC50 was determined as 27 nM.
On to `COc1cc2cnc(N3CCc4c([nH]c5ccccc45)C3c3ccc4c(c3)OCO4)nc2cc1OC` (stereo not drawn) [Example 47b, 1-Benzo[1,3]dioxol-5-yl-2-(6,7-dimethoxyquinazolin-2-yl)-2,3,4,9-tetrahydro-1H-β-carboline], for which the IC50 was 5 nM.
Then `O=C(O)CC(=O)Nc1ccc2sc(N3CCc4c([nH]c5ccccc45)C3c3ccc4c(c3)OCO4)cc2c1` (stereo not shown) [Example 48], with 20 nM.

Values taken from patent publication US7022856B2, “Carboline derivatives” (LIlly Icos LLC., priority 2001, dated 2006).
